# According to publication PMC7587356, “High-Throughput Screening for Inhibitors of the SARS-CoV-2 Protease Using a FRET-Biosensor” (Molecules, 2020):
# Counter-ions that a name gives are not always drawn. Like-named read-outs stand apart in the source and are kept apart here.
# Target: SARS-CoV-2 3CLpro (Severe acute respiratory syndrome coronavirus 2, UniProt P0DTD1)
# Experiment: biochemical
# Assay type: biochemical
# Design: Replicate_1 / Replicate_2 / mean / mean (LOPAC_screen_w_protease): unit not given here
# Details: for inhibition at 5 µM: 4 h
# [1] = LOPAC1280 primary screen with protease, 5 µM compound, mean of the two replicates
# [2] = LOPAC1280 primary screen with protease, 5 µM compound, replicate 1
# [3] = LOPAC1280 primary screen with protease, 5 µM compound, replicate 2
# [4] = sheet LOPAC_screen_w_protease, LOPAC1280 at 5 µM, mean of two replicates
# [5] = sheet LOPAC_screen_w_protease, LOPAC1280 at 5 µM, replicate 1
# [6] = sheet LOPAC_screen_w_protease, LOPAC1280 at 5 µM, replicate 2
# [7] = sheet LOPAC_screen_w_protease, primary screen with protease, 5 µM, mean of two replicates
# [8] = sheet LOPAC_screen_w_protease, primary screen with protease, 5 µM, replicate 1
# [9] = sheet LOPAC_screen_w_protease, primary screen with protease, 5 µM, replicate 2
# [10] = LOPAC1280 primary screen with protease, 5 µM compound, mean of two replicates
# [11] = sheet LOPAC_screen_w_protease, LOPAC1280 primary screen with protease, 5 µM compound, mean of the two replicates
# [12] = sheet LOPAC_screen_w_protease, LOPAC1280 primary screen with protease, 5 µM compound, replicate 1
# [13] = sheet LOPAC_screen_w_protease, LOPAC1280 primary screen with protease, 5 µM compound, replicate 2
# [14] = sheet LOPAC_screen_w_protease, LOPAC1280 primary screen with protease, 5 µM compound, mean of the two replicates, read-out: mean
# [15] = sheet LOPAC_screen_w_protease, LOPAC1280 primary screen with protease, 5 µM compound, replicate 1, read-out: Replicate_1
# [16] = sheet LOPAC_screen_w_protease, LOPAC1280 primary screen with protease, 5 µM compound, replicate 2, read-out: Replicate_2
# [17] = LOPAC1280 primary screen with protease, 5 µM compound, replicate 1, read-out: Replicate_1 (LOPAC_screen_w_protease)
# [18] = LOPAC1280 primary screen with protease, 5 µM compound, replicate 2, read-out: Replicate_2 (LOPAC_screen_w_protease)
# [19] = sheet LOPAC_screen_w_protease, LOPAC1280 primary screen at 5 µM, with protease, replicate 1
# [20] = sheet LOPAC_screen_w_protease, LOPAC1280 primary screen at 5 µM, with protease, replicate 2
# [21] = sheet LOPAC_screen_w_protease, LOPAC1280 primary screen at 5 µM, with protease, mean of the two replicates
compound,measurement,setting,value
C[N+](C)(C)CCOP(=O)([O-])OP(=O)([O-])OC[C@H]1O[C@@H](n2ccc(N)nc2=O)[C@H](O)[C@@H]1O.[Na+] [Citicoline sodium],mean (LOPAC_screen_w_protease),[1],2.039
same,Replicate_1 (LOPAC_screen_w_protease),[2],0.6867
same,Replicate_2 (LOPAC_screen_w_protease),[3],3.392
Br.COc1ccc(-c2ccc(=N)n(CCCC(=O)O)n2)cc1 [SR-95531],Replicate_1 (LOPAC_screen_w_protease),,2.0939
same,Replicate_2 (LOPAC_screen_w_protease),,0.7216
same,mean (LOPAC_screen_w_protease),,1.408
C[N+](C)(C)CCOC(=O)CCC(=O)OCC[N+](C)(C)C [Succinylcholine chloride],inhibition at 5 µM,"sheet LOPAC_screen_w_protease, LOPAC1280 at 5 µM, mean of two replicates, read-out: mean",1.08%
same,inhibition at 5 µM,"sheet LOPAC_screen_w_protease, LOPAC1280 at 5 µM, replicate 1, read-out: Replicate_1",1.05%
same,inhibition at 5 µM,"sheet LOPAC_screen_w_protease, LOPAC1280 at 5 µM, replicate 2, read-out: Replicate_2",1.11%
N[C@H](CCC(=O)NCS(=O)(=O)O)C(=O)O [gamma-D-Glutamylaminomethylsulfonic acid],mean,[4],1.223
same,Replicate_1,[5],4.708
same,Replicate_2,[6],-2.2619
CC(C)Oc1cccnc1N(C)C1CCN(Cc2ccccc2)CC1.O=C(O)/C=C\C(=O)O [U-101958 maleate],mean,[7],0.02682
same,Replicate_1,[8],1.919
same,Replicate_2,[9],-1.865
O=C([O-])c1cc2cc(Cc3cccnc3)ccc2o1.[Na+] [Furegrelate sodium],mean,"sheet LOPAC_screen_w_protease, primary screen of LOPAC1280 at 5 µM with protease, mean of the two replicates",4.074
same,Replicate_1,"sheet LOPAC_screen_w_protease, primary screen of LOPAC1280 at 5 µM with protease, replicate 1",5.241
same,Replicate_2,"sheet LOPAC_screen_w_protease, primary screen of LOPAC1280 at 5 µM with protease, replicate 2",2.907
N[C@@H](CS(=O)O)C(=O)O [L-Cysteinesulfinic Acid],mean (LOPAC_screen_w_protease),[10],1.669
same,Replicate_1 (LOPAC_screen_w_protease),[2],1.739
same,Replicate_2 (LOPAC_screen_w_protease),[3],1.598
Cn1c(=O)c2[nH]cnc2n(C)c1=O.Cn1c(=O)c2[nH]cnc2n(C)c1=O.NCCN [Aminophylline ethylenediamine],Replicate_1,,0.5539
same,Replicate_2,,-0.4553
same,mean,,0.04927
COc1ccccc1N1CCN(CC(O)COc2cccc3ccccc23)CC1.Cl.Cl (stereo not drawn) [Naftopidil dihydrochloride],mean,[11],6.057
same,Replicate_1,[12],7.362
same,Replicate_2,[13],4.753
C[N+](C)(C)CCO.[Br-] [Choline bromide],Replicate_1,,2.262
same,Replicate_2,,3.547
same,mean,,2.905
O=S(=O)(O)C1CCNCC1 [Piperidine-4-sulphonic acid],mean,[11],4.585
same,Replicate_1,[12],5.428
same,Replicate_2,[13],3.743
COc1cccc(OC)c1OCCNCC1COc2ccccc2O1.Cl (stereo not drawn) [WB-4101 hydrochloride],mean (LOPAC_screen_w_protease),[10],1.343
same,Replicate_1 (LOPAC_screen_w_protease),[2],1.824
same,Replicate_2 (LOPAC_screen_w_protease),[3],0.8625
Cn1cnc2c(NCc3ccccc3)nc(NCCO)nc21 [Olomoucine],inhibition at 5 µM,[14],4.92%
same,inhibition at 5 µM,[15],3.02%
same,inhibition at 5 µM,[16],6.83%
CCCc1c(-c2ccc(O)cc2)nn(-c2ccc(O)cc2)c1-c1ccc(O)cc1,mean,[4],1.246
same,Replicate_1,[5],3.0422
same,Replicate_2,[6],-0.5503
COc1ccccc1N1CCN(CCCCNC(=O)c2ccc3ccccc3c2)CC1 [BP 897],inhibition at 5 µM,[17],0.668%
same,inhibition at 5 µM,[18],1.98%
same,mean (LOPAC_screen_w_protease),[10],1.323
CCCN(CCc1ccccc1)C1CCc2c(O)cccc2C1.Cl (racemic) [(±)-PPHT hydrochloride],mean,[4],1.126
same,Replicate_1,[5],1.344
same,Replicate_2,[6],0.9086
"Cl.O=c1cc(N2CCOCC2)oc2c(-c3ccccc3)cccc12 [LY-294,002 hydrochloride]",mean,[11],5.665
same,Replicate_1,[12],6.484
same,Replicate_2,[13],4.845
O=C(Nc1ccccc1)c1cc([N+](=O)[O-])ccc1Cl [GW9662],mean (LOPAC_screen_w_protease),[10],1.573
same,Replicate_1 (LOPAC_screen_w_protease),[2],2.013
same,Replicate_2 (LOPAC_screen_w_protease),[3],1.1319
NNCCc1ccccc1 [Phenelzine sulfate],inhibition at 5 µM,read-out: Replicate_1,0.173%
same,inhibition at 5 µM,read-out: Replicate_2,-1.72%
same,inhibition at 5 µM,read-out: mean,-0.773%
CC1=C(CC(=O)O)c2cc(F)ccc2/C1=C\c1ccc(S(C)(=O)=O)cc1 [Sulindac sulfone],mean,"sheet LOPAC_screen_w_protease, LOPAC1280 primary screen at 5 µM, with protease, mean of two replicates",-1.258
same,Replicate_1,[19],0.6759
same,Replicate_2,[20],-3.192
O=c1onc2n1-c1cc(Br)ccc1OC2 [NS 2028],Replicate_1,,5.339
same,Replicate_2,,3.612
same,mean,,4.476
(+)-Catechin Hydrate,mean (LOPAC screen with protease),"sheet LOPAC_screen_w_protease, primary screen at 5 µM, mean of two replicates",22.7149
same,Replicate_1 (LOPAC screen with protease),"sheet LOPAC_screen_w_protease, primary screen at 5 µM, replicate 1",22.57
same,Replicate_2 (LOPAC screen with protease),"sheet LOPAC_screen_w_protease, primary screen at 5 µM, replicate 2",22.8597
CCC(=O)c1ccc2c(c1)N(CCCN(C)C)c1ccccc1S2 [Propionylpromazine hydrochloride],inhibition at 5 µM,[17],2.15%
same,inhibition at 5 µM,[18],0.621%
same,mean (LOPAC_screen_w_protease),[10],1.386
Cc1nc2sccn2c(=O)c1CCN1CCC(=C(c2ccc(F)cc2)c2ccc(F)cc2)CC1 [Ritanserin],inhibition at 5 µM,[17],2.24%
same,inhibition at 5 µM,[18],0.502%
same,mean (LOPAC_screen_w_protease),[10],1.373
CC(=O)NBr [N-Bromoacetamide],mean (LOPAC_screen_w_protease),[1],1.955
same,Replicate_1 (LOPAC_screen_w_protease),[2],1.503
same,Replicate_2 (LOPAC_screen_w_protease),[3],2.407
NC(=O)NO [Hydroxyurea],mean,"sheet LOPAC_screen_w_protease, primary screen with protease, compound at 5 µM, mean of two replicates",2.8429
same,Replicate_1,"sheet LOPAC_screen_w_protease, primary screen with protease, compound at 5 µM, replicate 1",4.9936
same,Replicate_2,"sheet LOPAC_screen_w_protease, primary screen with protease, compound at 5 µM, replicate 2",0.6922
COc1cc(CC(=O)O)ccc1O [4-Hydroxy-3-methoxyphenylacetic acid],mean,[7],0.06748
same,Replicate_1,[8],3.737
same,Replicate_2,[9],-3.602
"c1ccc(-c2ccccn2)nc1 [2,2'-Bipyridyl]",mean,[21],0.8479
same,Replicate_1,[19],3.924
same,Replicate_2,[20],-2.2286
O=c1c2ccccc2[nH]c(=S)n1CCN1CCC(=C(c2ccc(F)cc2)c2ccc(F)cc2)CC1 [Diacylglycerol Kinase Inhibitor II],inhibition at 5 µM,"sheet LOPAC_screen_w_protease, LOPAC1280 primary screen at 5 µM, with protease, mean of two replicates, read-out: mean",-3.62%
same,inhibition at 5 µM,"sheet LOPAC_screen_w_protease, LOPAC1280 primary screen at 5 µM, with protease, replicate 1, read-out: Replicate_1",-4.63%
same,inhibition at 5 µM,"sheet LOPAC_screen_w_protease, LOPAC1280 primary screen at 5 µM, with protease, replicate 2, read-out: Replicate_2",-2.61%
C=CC1=C(C)c2cc3[nH]c(cc4nc(cc5[nH]c(cc1n2)c(C)c5CCC(=O)O)C(CCC(=O)O)=C4C)c(C)c3C=C [Protoporphyrin IX disodium],inhibition at 5 µM,read-out: Replicate_1,2.66%
same,inhibition at 5 µM,read-out: Replicate_2,2.42%
same,inhibition at 5 µM,read-out: mean,2.54%
COc1ccc2c(c1)c(CC(=O)O)c(C)n2Cc1ccc(Cl)cc1,mean,[7],0.3525
same,Replicate_1,[8],-0.9083
same,Replicate_2,[9],1.613
C=CCN1CC[C@]23CCCC[C@H]2[C@H]1Cc1ccc(O)cc13 [Levallorphan tartrate],inhibition at 5 µM,[14],4.19%
same,inhibition at 5 µM,[15],5.56%
same,inhibition at 5 µM,[16],2.81%
CC(CCc1ccc(O)cc1)NCCc1ccc(O)c(O)c1 (stereo not drawn) [Dobutamine hydrochloride],inhibition at 5 µM,[17],2.05%
same,inhibition at 5 µM,[18],2.06%
same,mean (LOPAC_screen_w_protease),[1],2.053
CCCCC/C=C\C[C@@H](O)/C=C/c1cccc(C[C@@H](O)CCCCO)n1 [U-75302],mean (LOPAC_screen_w_protease),[10],1.3528
same,Replicate_1 (LOPAC_screen_w_protease),[2],0.07831
same,Replicate_2 (LOPAC_screen_w_protease),[3],2.627
N=C(N)SCCc1cnc[nH]1 [Imetit dihydrobromide],inhibition at 5 µM,"sheet LOPAC_screen_w_protease, primary screen with protease, mean of two replicates, read-out: mean",2.25%
same,inhibition at 5 µM,"sheet LOPAC_screen_w_protease, primary screen with protease, replicate 1, read-out: Replicate_1",1.12%
same,inhibition at 5 µM,"sheet LOPAC_screen_w_protease, primary screen with protease, replicate 2, read-out: Replicate_2",3.38%
CC(=O)SCC[N+](C)(C)C.[Cl-] [Acetylthiocholine chloride],mean,[21],0.4496
same,Replicate_1,[19],1.2654
same,Replicate_2,[20],-0.3662
N[C@@H](CCCC(=O)O)C(=O)O [L-2-aminoadipic acid],mean,[4],0.8841
same,Replicate_1,[5],1.166
same,Replicate_2,[6],0.6027
CN(C)S(=O)(=O)c1ccc2c(c1)/C(=C/c1cc3c([nH]1)CCCC3)C(=O)N2 [SU 6656],inhibition at 5 µM,[14],4.85%
same,inhibition at 5 µM,[15],3.58%
same,inhibition at 5 µM,[16],6.11%
